Data as given in paper PMC3973950, “Synthesis of 5-arylidine amino-1,3,4-thiadiazol-2-[(N-substituted benzyol)]sulphonamides endowed with potent antioxidants and anticancer activity induces growth inhibition in HEK293, BT474 and NCI-H226 cells” (Medicinal Chemistry Research, 2013).

Legend:
[1] = In vitro cytotoxicity by MTT assay, HEK 293; assay type: cell-based, human; conditions: human, HEK 293 cells, read-out: % cytotoxicity (100 − % cell survival) of HEK 293 cell line
Method in brief: (§1)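 Cells grown in RPMI-1640 with 10 % […] newborn calf serum were seeded at about 10,000 cells per well and left 24 h to form a partial monolayer. Compounds were then added for 72 h at 37 °C, 5 % CO2, followed by MTT for 4 h, formazan solubilized in propanol and absorbance read at 490 nm.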

[2] = system: BT474 (breast cancer cell line); assay: In vitro cytotoxicity by MTT assay, BT474; assay type: cell-based; conditions: 72 h
Method in brief: as §1

[3] = In vitro cytotoxicity by MTT assay, NCI-H226; assay type: cell-based; conditions: human, NCI-H226 lung cancer cells, 0.015 μM, read-out: % Cytotoxicity (100 − % cell survival) of NCI-H226 cell line
Method in brief: as §1

[4] = system: NCI-H226 (lung cancer cell line); assay: In vitro cytotoxicity by MTT assay, NCI-H226; assay type: cell-based; conditions: 72 h
Method in brief: as §1

[5] = system: HEK 293, M468 and NCI-H226; assay: In vitro cytotoxicity by MTT assay, summary over all cell lines; assay type: cell-based; conditions: on all cell lines
Procedure: The cancer cell line cultures of HEK 293 ([…]), BT474 (breast cancer cell line) and NCI-H226 (lung cancer) were obtained from Pasteur Institute of India, Coonoor, India, and were cultured in RPMI-1640 and 10 % heat-[…] New born calf serum with antibiotics [penicillin ([…]), streptomycin (100 μg/mL) and amphotericin B (25 μg/mL)]. The cells were maintained at 37 °C in a humidified atmosphere with 5 % CO2 and were subcultured twice a week.
The monolayer cell culture (100 μL) was trypsinized, and the cell count was adjusted to […] using medium containing 10 % new born calf serum. To each well of the 96-well microtitre plate, the diluted cell suspension (approximately 10,000 cells) (0.1 mL) was added and kept for 24 h in incubator at 37 °C in 5 % CO2 atmosphere for cell monolayer formation. After 24 h, when a partial monolayer was formed at the bottom of the well, the supernatant was flicked off, the monolayer was washed once, and different drugs, i.e. synthesized compounds (100 μL), were added to the cells in microtitre plates. The plates were then incubated at 37 °C for 3 days in 5 % CO2 atmosphere, and microscopic examination was carried out and observations recorded every 24 h. After 72 h, the sample solution in the wells was flicked off; MTT dye ([…]) was added to each well; plates were gently shaken and incubated for 4 h at 37 °C in 5 % CO2 incubator. The supernatant was removed and propanol (50 μL) was added; the plates were gently shaken to solubilize the formed formazan. The absorbance was measured using a microplate reader at a wavelength of 490 nm (Edmondson et al., [1988]; Prasad et al., [2005]; Chiruvella et al., [2008]; Chang et al., [2007]).

[6] = system: root meristem cells of Allium cepa; assay: In vitro antimitotic activity and cytogenetic analysis, Allium cepa meristem root model; assay type: cell-based; conditions: compounds 1 mg/mL, PC (EMS) 2 × 10^−2 M
Procedure: Small bulbs (1.5–2.0 cm in diameter) of the common onion, A. cepa (2n = 16), were purchased from vendor at a local market. Prior to initiating the test, the outer scales of the bulbs and the dry bottom plate were removed without destroying the root primordia. The roots of A. cepa were grown in distilled water in Erlenmeyer flasks (200 mL capacity) under laboratory conditions (dark 24 °C). For each synthesized compound sample, after reaching a length of 3 cm (±0.5 cm), a series of six bulbs were placed in distilled water (pH 7.3) for 48 h and then onion roots were treated with the synthesized compound at 1 mg/mL concentrations of each tested compound. The test tubes were kept in an incubator at 22 ± 1 °C, and the test samples were changed daily at the same time. Several of the newly formed root tips were then cut from each bulb and examined for any visible morphological abnormalities. The bulbs with satisfactory root lengths (2–2.5 cm) were used in the study, while those with exceptionally long or short roots were discarded (on average 2–3 bulbs). Therefore, individual sets of five bulbs were used for each extract sample.
Distilled water (pH 7.3) was used as a negative control, and EMS (2 × 10^−2 M) used as a positive control mutagen (Fiskesjo, [1993], [1997]). After 24 h of exposure, several root tips were removed from the bulbs, fixed in 3:1 (v/v) ethanol (90 %)/glacial acetic acid (45 %) and stored overnight at 4 °C. The next day, they were placed in 70 % (v/v) aqueous alcohol and refrigerated until used. Allium roots were softened by digesting with HCl and rinsed the roots in water. After removing the water from the third rinse, the roots were covered with the orcein acetate stain. The roots were incubated in the stain for 12 min. During this time, the very tip of the root begins to turn red as the DNA stains the numerous small actively dividing cells at the tip. A root was transferred to the centre of a clean microscope slide, and a drop of water was added. Using a razor blade most of the unstained part of the root was cut off and discarded. The root tip was covered with a cover slip and then carefully pushed down on the cover slide with the wooden end of a dissecting probe. […] The root tip should spread out to a diameter about 0.5–1 cm. Five slides were prepared per bulb.
The following parameters were used for the determination of cytotoxicity and genotoxicity: • (i) the mitotic index (MI) was calculated as the ratio between the number of mitotic cells and the total number of cells scored and expressed as percentage using following formula as per standard procedures. Mitoticindex=Numberofdividingcells/Totalnumberofcells×100 • (ii) Chromatin aberrations (stickiness, breaks and polar deviation) were used as end points for the determination of cytogenetic effects, and micronuclei (MNC) were scored in interphase cells per 1,000 cells (‰ MNC) (Freshney, [2000]). • (iii) The most frequent abnormalities are shown in microphotographs. After 72 h of exposure to the test samples, the root lengths were measured and used as an index of general toxicity. The results for mitotic index and root length are expressed as percentage of the negative and positive controls. Visible morphological modifications, such as changes in root consistency and colour as well as the presence of swelling (c-tumours), hooks or twists in the roots, were also observed.

[7] = system: HEK 293 (human epidermal kidney cell line); assay: In vitro cytotoxicity by MTT assay, HEK 293; assay type: cell-based; conditions: 72 h
Method in brief: as §1

Q: Which results are given for `Nc1nnc(S(=O)(=O)NC(=O)c2ccccc2)s1` [Compound 4a, 5-amino-1,3,4-thiadiazol-2-[N-(benzoyl)]sulphonamide]?
A: cytotoxicity at 72 h, 0.005 µM ([1]; 0.005 μM): 25.6%; cytotoxicity at 72 h, 0.015 µM ([1]; 0.015 μM): 25.8%; cytotoxicity at 72 h, 0.045 µM ([1]; 0.045 μM): 26.6%; cytotoxicity at 72 h, 0.13 µM ([1]; 0.13 μM): 26.9%; cytotoxicity at 72 h, 0.41 µM ([1]; 0.41 μM): 28.2%; cytotoxicity at 72 h, 1.23 µM ([1]; 1.23 μM): 28.5%; cytotoxicity at 72 h, 3.7 µM ([1]; 3.7 μM): 28.9%; cytotoxicity at 72 h, 11.11 µM ([1]; 11.11 μM): 29.5%; cytotoxicity at 72 h, 33.33 µM ([1]; 33.33 μM): 31.7%; cytotoxicity at 72 h, 100 µM ([1]; 100 μM): 33%; cytotoxicity at 0.005 µM ([2]; Homo sapiens, BT-474, 0.005 μM, read-out: % cytotoxicity (100 − % cell survival) of BT474 cell line): 20.1%; cytotoxicity at 0.015 µM ([2]; Homo sapiens, BT-474, 0.015 μM, read-out: % cytotoxicity (100 − % cell survival) of BT474 cell line): 22.6%; cytotoxicity at 0.045 µM ([2]; Homo sapiens, BT-474, 0.045 μM, read-out: % cytotoxicity (100 − % cell survival) of BT474 cell line): 23.1%; cytotoxicity at 0.13 µM ([2]; Homo sapiens, BT-474, 0.13 μM, read-out: % cytotoxicity (100 − % cell survival) of BT474 cell line): 24.6%; cytotoxicity at 0.41 µM ([2]; Homo sapiens, BT-474, 0.41 μM, read-out: % cytotoxicity (100 − % cell survival) of BT474 cell line): 25.4%; cytotoxicity at 1.23 µM ([2]; Homo sapiens, BT-474, 1.23 μM, read-out: % cytotoxicity (100 − % cell survival) of BT474 cell line): 25.9%; cytotoxicity at 3.7 µM ([2]; Homo sapiens, BT-474, 3.7 μM, read-out: % cytotoxicity (100 − % cell survival) of BT474 cell line): 26.3%; cytotoxicity at 11.11 µM ([2]; Homo sapiens, BT-474, 11.11 μM, read-out: % cytotoxicity (100 − % cell survival) of BT474 cell line): 27.4%; cytotoxicity at 33.33 µM ([2]; Homo sapiens, BT-474, 33.33 μM, read-out: % cytotoxicity (100 − % cell survival) of BT474 cell line): 28.1%; cytotoxicity at 100 µM ([2]; Homo sapiens, BT-474, 100 μM, read-out: % cytotoxicity (100 − % cell survival) of BT474 cell line): 28.7%; cytotoxicity at 72 h, 0.015 µM [3]: 23.1%; cytotoxicity at 0.005 µM ([4]; Homo sapiens, NCI-H226, 0.005 μM, read-out: % Cytotoxicity (100 − % cell survival) of NCI-H226 cell line): 22.4%; cytotoxicity at 0.045 µM ([4]; Homo sapiens, NCI-H226, 0.045 μM, read-out: % Cytotoxicity (100 − % cell survival) of NCI-H226 cell line): 24.2%; cytotoxicity at 0.13 µM ([4]; Homo sapiens, NCI-H226, 0.13 μM, read-out: % Cytotoxicity (100 − % cell survival) of NCI-H226 cell line): 24.9%; cytotoxicity at 0.41 µM ([4]; Homo sapiens, NCI-H226, 0.41 μM, read-out: % Cytotoxicity (100 − % cell survival) of NCI-H226 cell line): 25.5%; cytotoxicity at 1.23 µM ([4]; Homo sapiens, NCI-H226, 1.23 μM, read-out: % Cytotoxicity (100 − % cell survival) of NCI-H226 cell line): 26.1%; cytotoxicity at 3.7 µM ([4]; Homo sapiens, NCI-H226, 3.7 μM, read-out: % Cytotoxicity (100 − % cell survival) of NCI-H226 cell line): 26.6%; cytotoxicity at 11.11 µM ([4]; Homo sapiens, NCI-H226, 11.11 μM, read-out: % Cytotoxicity (100 − % cell survival) of NCI-H226 cell line): 27.1%; cytotoxicity at 33.33 µM ([4]; Homo sapiens, NCI-H226, 33.33 μM, read-out: % Cytotoxicity (100 − % cell survival) of NCI-H226 cell line): 27.5%; cytotoxicity at 100 µM ([4]; Homo sapiens, NCI-H226, 100 μM, read-out: % Cytotoxicity (100 − % cell survival) of NCI-H226 cell line): 27.9%; cytotoxic activity compared with all synthesized compounds [5]: less activity

Q: Which results are given for “N-({5-[(3-Nitrobenzylidene)amino]-1,3,4-thiadiazol-2-yl}sulfonyl)benzamide [Compound 9i]”?
A: Aberrant cells (%) ± SEM [6]: 22.41 ± 6.18%; Chromosome breaks (%) ± SEM [6]: 7.33 ± 2.06%; MNC (‰) ± SEM (micronuclei per 1,000 cells) [6]: 0.61 ± 0.15 ‰; Polar deviations (%) ± SEM [6]: 6.57 ± 1.33%; Stickiness (%) ± SEM [6]: 7.35 ± 2.06%; MI (%) ± SEM (mitotic index) ([6]; lower MI = higher activity, negative control 6.22): 3.07 ± 0.22%; % cytotoxicity (100 − % cell survival) of HEK 293 cell line ([7]; 0.005 μM): 33.04%; % cytotoxicity (100 − % cell survival) of HEK 293 cell line ([7]; 0.015 μM): 34.46%; % cytotoxicity (100 − % cell survival) of HEK 293 cell line ([7]; 0.045 μM): 35.12%; % cytotoxicity (100 − % cell survival) of HEK 293 cell line ([7]; 0.13 μM): 36.32%; % cytotoxicity (100 − % cell survival) of HEK 293 cell line ([7]; 0.41 μM): 36.69%; % cytotoxicity (100 − % cell survival) of HEK 293 cell line ([7]; 1.23 μM): 37.03%; % cytotoxicity (100 − % cell survival) of HEK 293 cell line ([7]; 3.7 μM): 37.19%; % cytotoxicity (100 − % cell survival) of HEK 293 cell line ([7]; 11.11 μM): 38.84%; % cytotoxicity (100 − % cell survival) of HEK 293 cell line ([7]; 33.33 μM): 39.51%; % cytotoxicity (100 − % cell survival) of HEK 293 cell line ([7]; 100 μM): 43.48%; % cytotoxicity (100 − % cell survival) of BT474 cell line ([2]; 0.005 μM): 31.52%; % cytotoxicity (100 − % cell survival) of BT474 cell line ([2]; 0.015 μM): 33.31%; % cytotoxicity (100 − % cell survival) of BT474 cell line ([2]; 0.045 μM): 34.59%; % cytotoxicity (100 − % cell survival) of BT474 cell line ([2]; 0.13 μM): 35.42%; % cytotoxicity (100 − % cell survival) of BT474 cell line ([2]; 0.41 μM): 36.12%; % cytotoxicity (100 − % cell survival) of BT474 cell line ([2]; 1.23 μM): 36.73%; % cytotoxicity (100 − % cell survival) of BT474 cell line ([2]; 3.7 μM): 37.56%; % cytotoxicity (100 − % cell survival) of BT474 cell line ([2]; 11.11 μM): 39.19%; % cytotoxicity (100 − % cell survival) of BT474 cell line ([2]; 33.33 μM): 40.50%; % cytotoxicity (100 − % cell survival) of BT474 cell line ([2]; 100 μM): 41.29%; % Cytotoxicity (100 − % cell survival) of NCI-H226 cell line ([4]; 0.005 μM): 33.61%; % Cytotoxicity (100 − % cell survival) of NCI-H226 cell line ([4]; 0.015 μM): 33.92%; % Cytotoxicity (100 − % cell survival) of NCI-H226 cell line ([4]; 0.045 μM): 33.97%; % Cytotoxicity (100 − % cell survival) of NCI-H226 cell line ([4]; 0.13 μM): 34.14%; % Cytotoxicity (100 − % cell survival) of NCI-H226 cell line ([4]; 0.41 μM): 34.59%; % Cytotoxicity (100 − % cell survival) of NCI-H226 cell line ([4]; 1.23 μM): 34.95%; % Cytotoxicity (100 − % cell survival) of NCI-H226 cell line ([4]; 3.7 μM): 35.27%; % Cytotoxicity (100 − % cell survival) of NCI-H226 cell line ([4]; 11.11 μM): 36.72%; % Cytotoxicity (100 − % cell survival) of NCI-H226 cell line ([4]; 33.33 μM): 38.57%; % Cytotoxicity (100 − % cell survival) of NCI-H226 cell line ([4]; 100 μM): 38.66%
